Test results as given in patent publication US10953015B2, “Use of adenosine receptor signaling to regulate P-gp function” (CORNELL UNIVERSITY, priority 2016, dated 2021).

Legend:
Format in all cases: cell-based, human
P-gp and MMP9 = test: Immunoprecipitation/IFA of P-gp with MMP9 in HBMVEC; conditions: 1 μM for 5 minutes
From the text: FIG. 8A is a schematic diagram of the experimental procedure for analysis of Lexiscan®'s effect on P-gp solubility and excretion in primary brain endothelial cells (“HBMVEC”). FIGS. 8B-8C are western blots and graphs summarizing the experimental result of each western blot. FIGS. 8B-8C show the analysis of P-gp expression of HBMVEC upon activation with Lexiscan® at different time points after lysis with RIPA buffer (FIG. 8B) or CSK buffer to measure P-gp levels in the cytoskeletal fraction (FIG. 8C). Band intensity was normalized to GAPDH and graphed. […] Band intensity was normalized using GAPDH and plotted. FIG. 8E is a western blot of secreted P-gp in HBMVEC upon activation with Lexiscan® in absence or presence of an MMP9 inhibitor: both short and long exposures of western blot from MMP9 inhibitor-treated samples are shown. Band intensity was plotted as a graph. FIG. 8F is a western blot showing the results of an Immunoprecipitation assay of MMP9 with lysate from HBMVEC treated with vehicle (control) or 1 μM of Lexiscan® for 5 minutes. P-gp was pulled down using anti-P-gp antibody and immunoblotted with an anti-MMP9 antibody. […] FIG. 8H is a graph summarizing the intensity of fluorescence of MMP9 from FIG. 8G. Fluorescent intensity of MMP9 was quantified and plotted as graph (n=20). **P<0.01 (2-tailed Student's t test, 1 representative result of 3 different experiments). […]

MMP9 = MMP9 expression in HBMVEC (western blot, IFA); conditions: western blot and IFA
From the text: FIG. 8A is a schematic diagram of the experimental procedure for analysis of Lexiscan®'s effect on P-gp solubility and excretion in primary brain endothelial cells (“HBMVEC”). FIGS. 8B-8C are western blots and graphs summarizing the experimental result of each western blot. FIGS. 8B-8C show the analysis of P-gp expression of HBMVEC upon activation with Lexiscan® at different time points after lysis with RIPA buffer (FIG. 8B) or CSK buffer to measure P-gp levels in the cytoskeletal fraction (FIG. 8C). Band intensity was normalized to GAPDH and graphed. […] Band intensity was normalized using GAPDH and plotted. FIG. 8E is a western blot of secreted P-gp in HBMVEC upon activation with Lexiscan® in absence or presence of an MMP9 inhibitor: both short and long exposures of western blot from MMP9 inhibitor-treated samples are shown. Band intensity was plotted as a graph. […] FIG. 8H is a graph summarizing the intensity of fluorescence of MMP9 from FIG. 8G. Fluorescent intensity of MMP9 was quantified and plotted as graph (n=20). **P<0.01 (2-tailed Student's t test, 1 representative result of 3 different experiments).
(§1) HCMEC-D3 and HBMVEC cells were plated in 12-well plates and were grown until they reached 100% confluency. […] The intensity of band was analyzed with densitometric analysis and plotted as a graph for analysis of time-course effect of AR signaling on P-gp expression.

P-gp [1] = test: P-gp expression in HEK293T kidney cell line (IFA MFI, western blot); conditions: Lexiscan® 1, 0.5, 0.1 μM
Protocol: FIGS. 20A and 20B illustrate that Lexiscan® downregulates P-gp expression in the kidney cell line HEK293T while treatment with antagonist SCH58261 blocks Lexiscan®'s effects. […] HEK293T cells were grown to confluency on coverslips, and treated with varying concentrations of Lexiscan® (1, 0.5, and 0.1 μM) for 15 minutes. Cells were permeabilized and then stained with an antibody to P-gp (C219) and visualized under a fluorescent microscope. FIG. 20B is a graph of the MFI of P-gp in FIG. 20A. DMSO vs. Lexiscan® (“Lex”), *=P<0.05, Lexiscan® (“Lex”)+SCH58261 (“SCH”), ****P<0.0001.
HEK293T transformed kidney cells were treated with varying concentration of Lexiscan® (1, 0.5, 0.1 μM). Cells were lysed with lysis buffer ([…]), containing protease inhibitor cocktail. Samples were loaded on 7% SDS PAGE at 100V for 1 hour and transferred to nitrocellulose paper. The intensity of bands were analyzed by densitometry and plotted as a graph. Statistics: two-tailed student's t test: *=P<0.5, ****=P<0.0001.
Applicants investigated whether A2A AR agonists could modulate P-gp expression in the HEK293T human kidney cell line. HEK293T cells were grown to confluency on coverslips and treated with varying concentrations of Lexiscan, Lexiscan® plus the A2A antagonist (SCH58261), or vehicle control for 15 minutes. Cells were then permeabilized, stained with an antibody to P-gp, and visualized under a fluorescent microscope (FIG. 20A). The mean fluorescence intensity (MFI) of P-gp was quantified and graphed in FIG. 20B.
HEK293T cells were treated with various concentrations of Lexiscan, lysed, loaded onto an SDS-PAGE gel, transferred to a nitrocellulose membrane, and used for western blot analysis.

P-gp [2] = test: P-gp solubility and secretion in HBMVEC (RIPA lysate, CSK cytoskeletal fraction, media)
From the text: FIG. 8A is a schematic diagram of the experimental procedure for analysis of Lexiscan®'s effect on P-gp solubility and excretion in primary brain endothelial cells (“HBMVEC”). FIGS. 8B-8C are western blots and graphs summarizing the experimental result of each western blot. FIGS. 8B-8C show the analysis of P-gp expression of HBMVEC upon activation with Lexiscan® at different time points after lysis with RIPA buffer (FIG. 8B) or CSK buffer to measure P-gp levels in the cytoskeletal fraction (FIG. 8C). Band intensity was normalized to GAPDH and graphed. […] Band intensity was normalized using GAPDH and plotted. FIG. 8E is a western blot of secreted P-gp in HBMVEC upon activation with Lexiscan® in absence or presence of an MMP9 inhibitor: both short and long exposures of western blot from MMP9 inhibitor-treated samples are shown. Band intensity was plotted as a graph. FIG. 8F is a western blot showing the results of an Immunoprecipitation assay of MMP9 with lysate from HBMVEC treated with vehicle (control) or 1 μM of Lexiscan® for 5 minutes. P-gp was pulled down using anti-P-gp antibody and immunoblotted with an anti-MMP9 antibody. FIG. 8G is an immunofluorescence microscopy image of MMP9 on HBMVEC treated with control (top panel) or 1 μM of Lexiscan® (middle panel) for 5 minutes. Cells were stained with P-gp (green) and MMP9 (red). Nucleus was counterstained with DAPI (blue). […] Cell-surface colocalization of P-gp and MMP9 is indicated by arrows. The scale bars indicates 25 μm (upper and middle panels); 5 μm (bottom panels). FIG. 8H is a graph summarizing the intensity of fluorescence of MMP9 from FIG. 8G. Fluorescent intensity of MMP9 was quantified and plotted as graph (n=20). **P<0.01 (2-tailed Student's t test, 1 representative result of 3 different experiments).
as §1

Structure (SMILES): CNC(=O)c1cnn(-c2nc(N)c3ncn([C@@H]4O[C@H](CO)[C@@H](O)[C@H]4O)c3n2)c1 [Lexiscan®, 1-[6-amino-9-[(2R,3R,4S,5R)-3,4-dihydroxy-5-(hydroxymethyl)oxolan-2-yl]purin-2-yl]-N-methylpyrazole-4-carboxamide]
- Interaction between P-gp and MMP9 (P-gp and MMP9): induced rapid interaction between P-gp and MMP9
- MMP9 expression (MMP9): Increased expression of MMP9 was observed beginning at 5 minutes
- P-gp expression (western blot densitometry) (P-gp [1]): significantly down-regulated P-gp expression in transformed HEK293T cells
- P-gp expression (MFI) (P-gp [1]; 15 minutes): down-regulates P-gp expression in HEK293T cells
- Secreted P-gp released into the media (P-gp [2]): An increase in secreted P-gp that was released into the media
- P-gp level in cytoskeletal fraction (CSK buffer) (P-gp [2]; up to 60 minutes): P-gp levels increased at from 5 to 15 minutes, returned to baseline by 30 minutes
- P-gp level in whole lysate (RIPA buffer) (P-gp [2]; up to 60 minutes): P-gp levels declined compared with vehicle control beginning at 5 minutes and were maintained for up to 60 minutes
